Assay [1] deals with Escherichia coli K12 BW25113. The experiment in a line: MIC by double dilution method, initial bacteria. Format: cell-based. As to conditions: for MIC: Escherichia coli, BW25113, read-out: MIC0. As for the experimental part:
(§1) Escherichia coli is a bacterium that is most commonly found in the gut of human and animal. It mainly parasitizes in the intestines, and accounts for about 1% of the intestine bacteria. Minimum inhibitory concentration (MIC) of Escherichia coli K12 BW25113 for ten kinds of antibiotics was detected with double dilution method. Escherichia coli K12 BW25113 of 10^5 colony forming unit/ml was cultured respectively in Luria-Bertani (LB) liquid medium separately with each of ten antibiotics at the concentration of ½ MIC at 37° C., and was serially passaged 10 times, so that the MIC of single colony was determined.

For assay [2], the system named is antibiotic-resistant Escherichia coli (passaged K12 BW25113). Kind of assay: MIC of single colony after 10 serial passages with antibiotic at 1/2 MIC. As to conditions: for MIC: Escherichia coli, BW25113, read-out: MIC10; for MIC10/MIC0: ratio of MIC after to before passage. Format: cell-based. The method, then:
as §1

Values after ≈ are worked out from the molar mass of the structure shown.

Regarding `NC[C@H]1O[C@H](O[C@H]2[C@H](O)[C@@H](O[C@H]3O[C@H](CO)[C@@H](O)[C@H](N)[C@H]3O)[C@H](N)C[C@@H]2N)[C@H](O)[C@@H](O)[C@@H]1O` [KAN, kanamycin], in assay [1], the MIC came to 6.25 mg/L (≈ 12.9 µM). In assay [2], the MIC was determined as 400 mg/L and the MIC10/MIC0 is recorded as 64.
For `CNC1CCCN(c2c(F)cc3c(=O)c(C(=O)O)cn(C4CC4)c3c2OC)C1` (stereo not shown) [BLFX, balofloxacin] the same measures were 0.25 mg/L (≈ 0.642 µM), 16 mg/L and 64.
For the compound `CN(C)[C@@H]1C(O)=C(C(N)=O)C(=O)[C@@]2(O)C(O)=C3C(=O)c4c(O)cccc4[C@@](C)(O)[C@H]3C[C@@H]12` [TET, tetracycline], the MIC is 3.12 mg/L (≈ 7.03 µM) in assay [1] and 200 mg/L in assay [2].
`[H]/N=C(/N)N[C@H]1[C@H](O)[C@@H](O)[C@H](O[C@@H]2O[C@@H](C)[C@](O)(C=O)[C@H]2O[C@@H]2O[C@@H](CO)[C@H](O)[C@@H](O)[C@@H]2NC)[C@@H](N/C(N)=N\[H])[C@@H]1O` [SM, streptomycin]: in assay [1], the MIC was 6.25 mg/L (≈ 10.7 µM). Moreover, in assay [2], the MIC worked out at 400 mg/L and the MIC10/MIC0 came to 64.
The matching figures for `O=C(N[C@H](CO)[C@H](O)c1ccc([N+](=O)[O-])cc1)C(Cl)Cl` [CAP, chloramphenicol]: 6.8 mg/L (≈ 21 µM), 435 mg/L and 64.
The matching figures for `CCn1cc(C(=O)O)c(=O)c2ccc(C)nc21` [NA, nalidixic acid]: 5 mg/L (≈ 21.5 µM), 320 mg/L and 64.
For the compound `CC[C@H]1OC(=O)[C@H](C)[C@@H](O[C@H]2C[C@@](C)(OC)[C@@H](O)[C@H](C)O2)[C@H](C)[C@@H](O[C@@H]2O[C@H](C)C[C@H](N(C)C)[C@H]2O)[C@](C)(O)C[C@@H](C)C(=O)[C@H](C)[C@@H](O)[C@]1(C)O` [ER, erythromycin], in assay [1], the MIC was 50 mg/L (≈ 68.1 µM). In addition, in assay [2], the MIC is 3200 mg/L and the MIC10/MIC0 is 64.
As for gentamicin, the MIC0 in assay [1] (before passage) worked out at 1.25 µg/mL. Also, in assay [2] (after 10 serial passages in LB with the respective antibiotic at 1/2 MIC, 37° C.), the MIC10 amounted to 80 mg/L. The MIC10/MIC0 in assay [2] was 64.
As to `CC(C)(O/N=C(\C(=O)N[C@@H]1C(=O)N2C(C(=O)[O-])=C(C[n+]3ccccc3)CS[C@H]12)c1csc(N)n1)C(=O)O` [CAZ, ceftazidime], the MIC in assay [1] was found to be 0.125 mg/L (≈ 0.229 µM); in assay [2] it was 8 mg/L.

For the origin of these results see US9962351B2, “Small molecule substance for improving sensitivity of bacteria to antibiotics” (priority 2012, dated 2018).
